Test results taken from patent US9334272B2, “Derivatives of purinic and pyrimidinic antiviral agents and use thereof as potent anticancer agents” (Ramot at Tel-Aviv University Ltd., priority 2007, dated 2016).

How the values were obtained:
[1] = tested on: acetylated histone H4; test: In vivo histone H4 acetylation in 4T1 tumors (Western blot); design: species or system mice; settings: 100 mg/kg each, 4 hours after treatment, vs vehicle
Method: For the determination of in vitro histone acetylation, 2.5-3×10^6 cells, seeded in 100 mm culture dishes, were supplemented with RPMI medium containing 10% heat inactivated FCS and were treated with the drugs the following day. At the specified times post-treatment, the cells were removed with a rubber policeman, centrifuged, washed, lysed with lysis buffer (PBS, Nonidet® NP-40 1%, sodium deoxycholate 0.5%, sodium dodecyl sulfate (SDS) 0.1%, 1 mM phenylmethylsulfonyl fluoride (PMSF), 1 mM sodium orthovanadate, and 1 μM each of leupeptin and pepstatin) and centrifuged at 10,000 g for 10 minutes at 4° C. […] The extract was then lyophilized, and protein concentration was determined with a BCA kit (Pierce, USA). […] The fold increase of acetylated histones was determined by the ratio of band intensities of treated and untreated cells or mice, normalized to loading control (total histone H3).
Cell lysates or acid extracted histones were solubilized in a concentrated (×4) loading buffer (62.5 mM Tris-HCl, pH 6.8, 1% SDS, 10% glycerol v/v, 1% dithiothreitol (DTT) and 0.1 mg/ml bromophenol blue). […] The membrane was exposed for 5 minutes to Chemiluminescence BioMax light film (Kodak, USA) and the intensity of the bands was measured with a VersaDoc instrument with a Quantityl program (Bio-Rad, USA). […]

[2] = tested on: 3LLD122 Lewis lung carcinoma; test: Metastatic Lewis lung carcinoma (3LL) model; assay type: in vivo, mice; settings: Compound 6 30 mg/kg, Compound 7 25 mg/kg, per os thrice per week, 21 days; p<0.02 vs acyclovir
Method: Female C57/BL mice, 7-10 weeks old, were acclimated for ten days. All in vivo experiments were conducted according to the NIH Laboratory Animal Care Guidelines and in accordance with the guidelines and approval of the Tel Aviv University Committee for Animal Experimentation.
The subclone 3LLD122 of 3LL used in the study was selected for its aggressive and invasive nature. […] The animals were sacrificed after 21 days of treatment, their lungs were weighed, stained with Bouin's fixative and the metastatic lesions were scored double-blindly.

[3] = tested on: 4T1 murine breast carcinoma; test: Metastatic 4T1 breast carcinoma model; assay type: in vivo, mice; settings: 4T1 model; for anti-cancer activity (number of metastases and lung weight): 40 or 80 mg/kg, FIG. 18
Method: The syngeneic murine breast carcinoma metastatic model was performed with 8-10 weeks old BALB-c mice implanted with 4T1 cells. When the tumor volume reached 75-180 mm^3 (after ˜10 days), treatment was initiated for an additional 21 days. At termination, the animals were sacrificed and their lungs removed, stained with Bouin's solution, and lung lesions were scored under an illuminated magnifying glass.

[4] = Acute toxicity assay in mice; assay type: in vivo; settings: male, mouse, in vivo; single per os dose, ICR mice
Excerpt: (§1) Male ICR mice, 8 weeks old (Harlan, Israel) were acclimated for 10 days before administration of the tested compounds. The animals were monitored for two weeks and weighed three times per week.

[5] = tested on: ICR mice; test: Acute toxicity assay in mice; assay type: in vivo; settings: 2 weeks
Excerpt: as §1

[6] = tested on: U-251 cells; test: Hoechst viability assay, U-251 glioma cells; assay type: cell-based, human; settings: Homo sapiens, 72 hours, Hoechst, read-out: IC50
Method: (§2) Cells (in quadruplicate) at the specified density were suspended in 200 μL medium supplemented with 10% FCS seeded in 96-well plates for 24 hours, then exposed to the drugs for 72 hours. The viability of the cells was determined by Hoechst fluorescent assay as described by Nudelman et al., 2005. Leukemic cell viability after 72 hours of treatment was determined by an MTT (3-(4,5-dimethylthiazol-2-yl)-2,5-diphenyltetrazolium bromide) assay as described by Levovich et al., 2007.
(§3) IC50 values were determined by linear regression of the percentage of survival following drug titration.

[7] = tested on: 22RV1 cells; test: Hoechst viability assay, 22RV1 prostate carcinoma cells; assay type: cell-based, human; settings: Homo sapiens, 72 hours, Hoechst, read-out: IC50
Method: as §2, §3

[8] = tested on: U-251 cells; test: Mitochondrial membrane potential (JC-1 staining), U-251 cells; assay type: cell-based, human; settings: 60 μM, 24 hour treatment
[9] = tested on: U-251 cells; test: Apoptosis/cell death by annexin V-FITC and propidium iodide FACS, U-251 cells; assay type: cell-based; settings: U-251 cells, 24 hours
Method: Cells were seeded in six-well plates (10^5 cells/well) for 24 hours and were then treated as specified, trypsinized, washed with PBS, double-stained with annexin V-FITC (fluorescein isothiocyanate) and propidium iodide, according to the manufacturer's instructions and subjected to flow cytometry analysis (FACScalibur cytometer, Becton Dickinson).

[10] = tested on: phospho-H2AX (Ser139); test: Phospho-H2AX Western blot, U-251 cells; assay type: cell-based, human; settings: 60 μM, 0.5, 2 or 24 hours, peak after 2 hours
Method: Cell lysates or acid extracted histones were solubilized in a concentrated (×4) loading buffer (62.5 mM Tris-HCl, pH 6.8, 1% SDS, 10% glycerol v/v, 1% dithiothreitol (DTT) and 0.1 mg/ml bromophenol blue). Proteins (10-40 μg) were run on SDS-PAGE, transferred to a nitrocellulose membrane (Schleicher & Schuell, Germany) and probed with the primary antibodies, followed by incubation with a horseradish peroxidase (HRP)-goat anti-rabbit IgG or HRP-rabbit anti-mouse IgG as secondary antibodies. HRP bound to the secondary antibodies was visualized by the enhanced chemiluminescence method using the Western Blotting Luminol reagent (Santa Cruz, Calif., USA). The membrane was exposed for 5 minutes to Chemiluminescence BioMax light film (Kodak, USA) and the intensity of the bands was measured with a VersaDoc instrument with a Quantityl program (Bio-Rad, USA). The fold increase of each specific protein was determined by the ratio of band intensities of treated and untreated cells, normalized to loading control (actin or total histone H3).

[11] = tested on: rat primary cardiomyocytes; test: ROS production (DCF-DA) in rat primary cardiomyocytes; assay type: cell-based; settings: 2 μM
Method: Neonatal rat ventricular cardiomyocytes were isolated and cultured in collagen coated culture dishes as described by Shalitin et al., 1996. Growth medium contained DMEM:Ham's F12 (1:1), fetal calf serum (10%) and antibiotics. Treatment was administered to spontaneously beating cardiomyocytes 48 hours after plating.

[12] = tested on: 4T1 cells; test: Hoechst viability assay, 4T1 breast carcinoma cells (Dox combination); assay type: cell-based, murine; settings: Mus musculus, 72 hours, 3 experiments
Method: as §2, §3
The combination index for drug interaction was calculated by Chou's Median Effect Analysis (MEA) [Chou, 2006]. The combination index (CI) was defined as CI=D1/(DM)1+D2/(DM)2, where D1 and D2 are the doses of drug 1 and drug 2, respectively, (DM)1 and (DM)2 are the doses of drug 1 and drug 2 and their mixture (in a specified ratio) required to produce a median effect, e.g., IC50. CI<1, =1 or >1 indicates synergism, additive effect, and antagonism respectively.

[13] = tested on: U-251 cells; test: Cell cycle analysis (propidium iodide flow cytometry), U-251 cells; assay type: cell-based, human; settings: 24 hours
Method: Cells (4×10^5) were seeded in 35 mm culture dishes and after 24 hours were starved in medium without serum for an additional 24 hours, and then treated with the drug for an additional 24 hours. The cells were then trypsinized to a single cell suspension in PBS, washed, and resuspended in PBS at a concentration of 10^6 cells/mL. The cells were fixed with 70% ethanol for 30 minutes at 4° C., centrifuged and resuspended in 1 ml PBS containing 0.1% Tween 20 and 0.05% bovine serum albumin (BSA). RNase free of DNase was added, and the cell suspension (10^6 cells) was incubated at […] for 30 minutes. The cell suspension was then chilled on ice to a temperature in the range of 2 to 8° C. Propidium iodide (50 μg/mL) was added to the cell suspension, which was than kept in the dark. Red fluorescence (>630 nm) was analyzed on the flow cytometer.

[14] = tested on: U-251 cells; test: Reactive oxygen species by DCF-DA FACS, U-251 cells; assay type: cell-based, human; settings: 2 hour treatment
Method: ROS levels were determined by FACS analysis of U-251 cells treated with dichlorodihydrofluorescein diacetate (DCF-DA), which becomes fluorescent when oxidized.

[15] = target: T1, proteasome (Homo sapiens, UniProt P28074); test: Proteasome activity assay, U-251 cells; assay type: cell-based; settings: 4 or 24 hours, alone or in combination
T1 construct: proteasome activity in U-251 cells treated for 4 or 24 hours; endogenous in cells; host or cells: U-251 cells (lysates of treated cells)
T1 sequence (P28074 60-263): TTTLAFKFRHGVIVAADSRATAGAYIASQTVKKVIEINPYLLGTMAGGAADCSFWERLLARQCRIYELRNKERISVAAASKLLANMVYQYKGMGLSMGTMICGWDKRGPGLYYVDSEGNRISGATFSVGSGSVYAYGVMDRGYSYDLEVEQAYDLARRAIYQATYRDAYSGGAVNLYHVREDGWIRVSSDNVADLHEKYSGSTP
Method: The peptidase or chymotrypsin-like activity of the proteasome was assayed using N-succinyl-Leu-Leu-Val-Tyr-7-amido-4-methylcoumarin. The lysates (100 μL) were incubated with 13 (M of the substrate in 100 mM Tris, pH 7.5, for 1 hour with shaking at room temperature. The reaction was stopped by addition of ice-cold ethanol, and the samples were centrifuged for 5 minutes at 2500 g. The supernatants were collected and the fluorescence was measured with excitation/emission filters of 390/460 nm using the FluoStar fluorimeter. The protein concentration was determined using a BCATM kit (Pierce) and the proteasome activity was derived from the ratio of fluorescence at 460 nm/(g of protein. The percentage of proteasome activity was calculated relative to untreated cells.

SMILES: CCCC(=O)Nc1nc2c(ncn2COCCOC(=O)CCC)c(=O)[nH]1 [Compound 7, N-butyryl-9-(2-butyryloxy)ethoxymethylguanine]
- levels of acetylated H4 in tumors [1]: significantly higher levels of acetylated H4
- number of lung macro-lesions (anti-metastatic activity) [2]: significant anti-metastatic activity
- lung weight ([3]; 25 mg/kg, p<0.05): reduction in lung weight
- number of observed lung lesions ([3]; 25 mg/kg, p<0.05): reduction in the number of observed lung lesions
- anti-cancer activity (number of metastases and lung weight) [3]: significant anti-cancer activity
- LD50 at 2 weeks [4]: > 750 mg/kg
- Survival (%) ([5]; single per os dose 150 mg/kg): 100%
- Survival (%) ([5]; single per os dose 200 mg/kg): 100%
- Survival (%) ([5]; single per os dose 250 mg/kg): 100%
- Survival (%) ([5]; single per os dose 500 mg/kg): 100%
- Survival (%) ([5]; single per os dose 750 mg/kg): 100%

SMILES: CCCCCCCC(=O)Nc1nc2c(ncn2COCCOC(=O)CCCCCCC)c(=O)[nH]1 [Compound 8, N-octanoyl-9-(2-octanoyloxy)ethoxymethylguanine]
- anti-cancer activity (number of metastases and lung weight) [3]: little, if any anticancer activity

SMILES: CCCC(CCC)C(=O)OCCOCn1cnc2c(=O)[nH]c(N)nc21 [Compound 12, 9-(2-valproyloxy)ethoxymethylguanine]
- IC50 [6]: 251 ± 12 µM
- IC50 [7]: 241 ± 12 µM
- mitochondrial membrane potential [8]: no apparent effect
- percentage of apoptotic cells [9]: increased the percentage of apoptotic cells in a dose dependent manner

SMILES: CCCCCC(=O)Nc1nc2c(ncn2COCCOC(=O)CCCCC)c(=O)[nH]1 [Compound 20, N-hexanoyl-9-(2-hexanoyloxy)-ethoxymethylguanine]
- anti-cancer activity (number of metastases and lung weight) [3]: little, if any anticancer activity

SMILES: O=C(/C=C/c1ccccc1)Nc1nc2c(ncn2COCCOC(=O)/C=C/c2ccccc2)c(=O)[nH]1 [Compound 22, N-cinnamoyl-9-(2-cinnamoyloxy)-ethoxymethylguanine]
- level of phosphorylated H2AX [10]: induced an increase in the level of phosphorylated H2AX
- mitochondrial membrane potential [8]: no apparent effect

SMILES: CCCC(CCC)C(=O)Nc1nc2c(ncn2COCCO)c(=O)[nH]1 [Compound 23, N-valproyl-9-(2-hydroxy)ethoxymethylguanine]
- IC50 [6]: > 750 µM
- IC50 [7]: 402 ± 22 µM
- mitochondrial membrane potential [8]: no apparent effect

SMILES: COc1cccc2c1C(=O)c1c(O)c3c(c(O)c1C2=O)C[C@@](O)(C(=O)CO)C[C@@H]3O[C@H]1C[C@H](N)[C@H](O)[C@H](C)O1 [doxorubicin, reference compound]
- production of ROS [11]: increased dramatically the production of ROS
- IC50 [12]: 16.5 nM

SMILES: CCCC(CCC)C(=O)O [valproic acid, reference compound]
- phase of cell-cycle arrest ([13]; 1 mM): G2-M phase
- Percentage of cells in G0-G1 stage ([13]; 1000 μM): 20.3%
- Percentage of cells in G2-M stage ([13]; 1000 μM): 47.5%
- Percentage of cells in S stage ([13]; 1000 μM): 32.5%
- level of oxidation in cells (ROS) [14]: little if any effect
- inhibitory effect on proteasome activity [15]: only a marginal inhibitory effect
